How the values were obtained:
Aβ plaques [1] = molecular target: T1, Aβ plaques (Homo sapiens, UniProt P05067); assay: Ex vivo curcumin staining of brain cryosections and retinas of AD-Tg mice; format: binding, mouse
Method: Brain cryosections (30 μm thick), retina cross sections (cryosections) (7 μm thick) and whole mount retinas were treated with a permeabilization/blocking solution containing 20% horse serum (Invitrogen) and 0.01-0.1% Triton X-100 (Sigma-Aldrich, St. Louis, Mo.). Sections were stained overnight at 4° C. with a specified combination of the following primary Abs in PBS containing 10% blocking solution: mouse anti-Aβ [human amino-acid residues 1-17; clone 6E10 (1:100; Milipore, Temecula, Calif.)]. […]
Micrographs of stained tissues were obtained on an Axio Imager Z1 ApoTome-equipped microscope (with motorized Z-drive) with AxioCam MRm monochrome camera ver. […] Quantitative analysis of Aβ plaque number and area (mm^2) was performed from two wholemounted retinas per mouse (n=4 mice per group). […] Quantitative analysis of Aβ plaque number and area (mm^2) in the brain was determined from three coronal sections (two hemispheres each) per mouse with 450 μm intervals, over an area covering hippocampal and cortical regions. […] Total area and quantitative levels of immunoreactivity were determined using a standardized custom histogram-based threshold technique, and then subjected to particle analysis.

Aβ plaques [2] = molecular target: T1, Aβ plaques; assay: Ex vivo curcumin staining of postmortem human whole-mount retinas; format: binding
Text: We also analyzed the human retinas with antibodies directed against human Aβ.
Autopsy eyes from Alzheimer's patients were procured from the Alzheimer's Disease Research Center, Department of Pathology, University of Southern California (Los Angeles, Calif.), under IRB protocols 99491 and 3201. Healthy donor eyes were purchased from National Disease Research Interchange (NDRI, Philadelphia, Pa.). NDRI has a human tissue collection protocol approved by a managerial committee and subject to National Institutes of Health oversight. Diseased and normal eyes were fixed and stored in 10% neutral buffered formalin. In addition, we used two healthy eyes that were frozen without fixation and stored at −80° C. Whole-mount retinas were prepared from the eyes and further studied by immunohistochemisty.
The samples were covered with GVA mounting media (Zymed).

Aβ plaques [3] = molecular target: T1, Aβ plaques; assay: In vivo labeling of Aβ plaques after systemic curcumin administration, tissues examined afterwards; set-up: species or system mouse
Method: Mice were anesthetized and perfused with 4% ice-cold buffered PFA, and a group of mice were not perfused. Their eyes were enucleated and fixed immediately in 4% fresh PFA overnight. For whole mount retinas, the eyes were dissected and the anterior part was removed. The eyecups were soaked for 10 minutes in hyaluronidase (type I-S) (0.07 mg/ml) (Sigma) to liquefy and remove the vitreous residues, than washed for 10 minutes×3 in PBS, and the whole mount retinas were collected. For whole eye sectioning, the eyes were put in 30% sucrose in 4% PFA for 2 hours, than washed for 15 minutes×3 in PBS. The eyes were embedded in O.C.T and frozen slowly on dry ice than sagittal sectioned (7 μm) with cryostat. Brains were collected and fixed immediately in 4% fresh PFA overnight. The brains were put in 30% sucrose (in 4% PFA) gradient. Brains were washed for 15 minutes×3 in PBS, next embedded in O.C.T and frozen slowly on dry ice, then coronal sectioned (30 μm) with cryostat. […] Subsequently, brains and eyes were cryosectioned, or prepared for whole mount retina.

Aβ plaques [4] = molecular target: T1, Aβ plaques; assay: In vivo imaging of the retina in live mice after curcumin injection; set-up: species or system mouse; settings: single injection 7.5 mg/kg, two hours prior to imaging, excitation 546/15 nm, AD-Tg mice
Method: To investigate the feasibility of our approach for noninvasive plaque detection, we conducted an in vivo imaging of the retina in live mice using a modified stereomicroscope (Leica S6E) with a wavelength-controlled light source and a digital camera.
Mice were anaesthetized with Ketamine 100 mg/ml/kg and Xylazine 20 mg/ml/kg. Mouse pupils were dilated to about 2 mm in diameter with 0.5% phenylephrine hydrochloride ophthalmic solution (Bausch & Lomb) combined with 0.5% tropicamide ophthalmic solution (Mydral; Bausch & Lomb). During the imaging process, the mice were positioned on a stage of the stereomicroscope, and the eye was covered with a drop of PBS supplemented with calcium and magnesium, which served as an optical coupling medium between the eye surface and the imaging lens. A modified stereomicroscope (Leica S6E) that was adjusted to visualize fluorescence and scatter signals at higher resolution was used to capture images (exposure time 750 ms. with gain 4). The modified stereomicroscope was assembled to include a Polychrome V (Till Photonics) variable wavelength light source, a MicroFire color digital camera (Optronics), and an additional 6× (double convex) magnifying lens, with a focal length of 10 cm. Images were repeatedly captured at several different angles, in order to visualize a larger field and to eliminate non-specific reflection signals.

T1 sequence (P05067 672-713 limits assumed): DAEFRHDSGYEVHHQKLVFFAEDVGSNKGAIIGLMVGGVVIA

Structure (SMILES): COc1cc(/C=C/C(=O)CC(=O)/C=C/c2ccc(O)c(OC)c2)ccc1O [curcumin, diferuloylmethane]
- Curcumin staining of plaques detected by anti-human Aβ antibodies (Aβ plaques [1]; hippocampus of AD-Tg mice, brain cryosections, ex vivo): had an affinity to the same plaques that were detected by antibodies specific to human Aβ
- Curcumin labeling of retinal Aβ plaques (Aβ plaques [1]; retinas of AD-Tg mice, whole mount and cross-section, not in non-Tg (wt) mice): presence of Aβ plaques labeled by both curcumin and anti-human AP-antibodies
- Co-localization of curcumin with anti-human Aβ immunolabeling (Aβ plaques [2]; human AD retinas, curcumin after immunolabeling): confirmed their co-localization
- Plaques detected by curcumin in human retinas (Aβ plaques [2]; postmortem AD patient eyes (n=9), after Sudan Black B, none in non-AD eyes): found in all AD patient eyes examined
- Detection of labeled plaques following administered curcumin (Aβ plaques [3]; i.v., single or multiple injections, retinas and brains): could be detected in the retinas and brains of AD-Tg mice, but not in the non-Tg (wt) controls
- Affinity for Aβ plaques in vivo (Aβ plaques [3]; mice, intravenous injection): high affinity for Aβ plaques in vivo
- Blood-brain barrier crossing (Aβ plaques [3]; mice, intravenous injection): crosses the blood-brain barrier
- Blood-retina barrier crossing (Aβ plaques [3]; mice, intravenous injection): also crosses the blood-retina barrier
- Detection of retinal Aβ plaques (Aβ plaques [3]; systemically at a single dose of 7.5 mg/kg or given orally): effective in detecting retinal Aβ plaques
- Visibility of curcumin-labeled plaques in live mouse retina (Aβ plaques [4]): curcumin-labeled plaques were visible
